Data from the NIST ThermoML archive (doi:10.1016/j.tca.2017.12.019).
± gives the expanded uncertainty stated by the source.

Columns and labels:
[1] = Molar enthalpy of transition or fusion; details: Crystal; DSC
[2] = Crystal; DTA

For CCCCCCCCCCCC(=O)O [dodecanoic acid], the “Molar enthalpy of transition or fusion” value [1] was 8.43 ± 0.234 kcal/mol and the Normal melting temperature [2] was 42.70 ± 0.7 °C.
